Laboratory results published in ChEMBL document CHEMBL5465560, “Selectivity Literature for EUbOPEN Chemogenomic Library” (2024).
One block for each compound: values may come before it.

Tests used:
[1] = biological target: cAMP-dependent protein kinase catalytic subunit beta (Homo sapiens) (UniProt P22694); conditions: at 10 µM
[2] = biological target: Mitogen-activated protein kinase 14 (Homo sapiens, UniProt Q16539); assay: Selectivity interaction (ActivX KiNativ screen (kinase selectivity in THP-1 cell lysates)) EUB0000639a MAPK14; assay type: subcellular; conditions: lysate, at 1 µM
Sequence of Mitogen-activated protein kinase 14 (Q16539 whole entry): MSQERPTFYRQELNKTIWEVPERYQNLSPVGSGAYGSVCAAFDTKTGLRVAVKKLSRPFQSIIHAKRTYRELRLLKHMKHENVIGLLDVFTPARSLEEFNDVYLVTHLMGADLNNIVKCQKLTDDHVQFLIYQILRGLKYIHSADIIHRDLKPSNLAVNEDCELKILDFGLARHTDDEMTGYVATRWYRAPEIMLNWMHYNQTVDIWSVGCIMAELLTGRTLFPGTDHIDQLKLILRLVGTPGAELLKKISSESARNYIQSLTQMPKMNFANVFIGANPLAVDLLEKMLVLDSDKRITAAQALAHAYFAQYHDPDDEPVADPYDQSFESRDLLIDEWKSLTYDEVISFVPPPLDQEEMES

[3] = biological target: Tyrosine-protein kinase Fer (Homo sapiens) (UniProt P16591); assay: Selectivity interaction (ActivX KiNativ screen (kinase selectivity in THP-1 cell lysates)) EUB0000639a FER; assay type: subcellular; conditions: lysate
Sequence of Tyrosine-protein kinase Fer (Homo sapiens) (P16591 whole entry, looked up): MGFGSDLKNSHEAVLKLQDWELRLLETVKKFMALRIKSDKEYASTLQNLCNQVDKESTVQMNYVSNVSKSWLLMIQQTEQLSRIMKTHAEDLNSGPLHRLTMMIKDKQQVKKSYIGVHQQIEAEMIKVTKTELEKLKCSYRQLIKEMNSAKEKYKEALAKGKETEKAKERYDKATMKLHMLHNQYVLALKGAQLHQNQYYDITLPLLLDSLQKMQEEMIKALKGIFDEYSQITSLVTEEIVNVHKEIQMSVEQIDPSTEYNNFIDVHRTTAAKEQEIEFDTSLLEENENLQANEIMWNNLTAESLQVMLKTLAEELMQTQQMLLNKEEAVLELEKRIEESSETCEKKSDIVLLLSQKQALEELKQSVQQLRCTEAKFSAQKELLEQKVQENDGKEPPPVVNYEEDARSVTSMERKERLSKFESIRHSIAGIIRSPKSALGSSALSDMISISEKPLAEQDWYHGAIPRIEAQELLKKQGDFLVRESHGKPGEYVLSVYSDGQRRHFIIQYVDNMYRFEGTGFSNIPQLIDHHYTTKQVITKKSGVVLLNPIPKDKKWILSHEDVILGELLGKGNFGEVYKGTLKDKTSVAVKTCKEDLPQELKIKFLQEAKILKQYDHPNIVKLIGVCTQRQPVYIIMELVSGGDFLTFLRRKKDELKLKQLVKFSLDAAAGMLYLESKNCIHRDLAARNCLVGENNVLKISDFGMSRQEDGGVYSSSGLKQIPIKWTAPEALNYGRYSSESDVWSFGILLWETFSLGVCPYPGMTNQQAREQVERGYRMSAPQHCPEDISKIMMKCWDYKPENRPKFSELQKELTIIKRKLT

[4] = biological target: T1, Dual specificity tyrosine-phosphorylation-regulated kinase 2 (Homo sapiens) (UniProt Q92630); assay: Selectivity interaction (Kinase panel (literature)) EUB0001199aCl DYRK2; conditions: at 1 µM
T1 sequence (whole entry): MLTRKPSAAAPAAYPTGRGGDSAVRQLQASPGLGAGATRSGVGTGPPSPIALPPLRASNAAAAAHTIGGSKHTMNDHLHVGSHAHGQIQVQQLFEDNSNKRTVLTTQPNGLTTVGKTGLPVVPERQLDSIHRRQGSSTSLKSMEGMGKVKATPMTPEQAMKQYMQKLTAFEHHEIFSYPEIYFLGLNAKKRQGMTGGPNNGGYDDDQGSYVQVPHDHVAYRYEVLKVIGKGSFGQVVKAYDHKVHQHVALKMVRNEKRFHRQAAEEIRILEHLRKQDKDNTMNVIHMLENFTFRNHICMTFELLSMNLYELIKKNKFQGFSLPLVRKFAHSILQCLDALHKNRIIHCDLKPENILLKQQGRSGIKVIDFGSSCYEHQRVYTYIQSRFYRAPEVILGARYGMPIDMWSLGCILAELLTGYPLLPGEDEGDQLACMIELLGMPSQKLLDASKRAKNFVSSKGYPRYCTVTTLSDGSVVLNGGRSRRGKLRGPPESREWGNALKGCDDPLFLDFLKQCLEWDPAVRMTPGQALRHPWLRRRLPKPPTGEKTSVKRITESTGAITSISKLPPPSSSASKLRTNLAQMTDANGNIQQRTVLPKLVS

[5] = biological target: T2, Activin receptor type-1 (Homo sapiens) (UniProt Q04771); assay: (§1) Selectivity interaction (LanthaScreen Eu Kinase Binding Assay) EUB0001632a ACVR1; conditions: at 10 µM
T2 sequence (whole entry): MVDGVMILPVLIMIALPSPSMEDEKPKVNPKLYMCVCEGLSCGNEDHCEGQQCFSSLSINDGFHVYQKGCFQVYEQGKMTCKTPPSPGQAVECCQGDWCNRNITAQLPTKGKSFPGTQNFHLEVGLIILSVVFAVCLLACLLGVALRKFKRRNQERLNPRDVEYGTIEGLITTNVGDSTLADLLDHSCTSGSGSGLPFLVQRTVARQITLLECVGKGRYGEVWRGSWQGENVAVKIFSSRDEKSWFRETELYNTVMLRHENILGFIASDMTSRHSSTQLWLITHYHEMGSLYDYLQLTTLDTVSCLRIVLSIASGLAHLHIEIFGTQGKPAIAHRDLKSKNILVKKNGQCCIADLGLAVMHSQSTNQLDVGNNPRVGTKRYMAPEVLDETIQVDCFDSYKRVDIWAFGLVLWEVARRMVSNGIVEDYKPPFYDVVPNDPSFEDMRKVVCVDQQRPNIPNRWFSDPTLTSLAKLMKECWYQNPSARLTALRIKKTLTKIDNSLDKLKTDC

[6] = system: Activin receptor type-1 (Homo sapiens), Q04771 [R206H]; assay: as §1; conditions: at 10 µM
Sequence of Activin receptor type-1 (Homo sapiens), Q04771 [R206H] (Q04771 whole entry R206H): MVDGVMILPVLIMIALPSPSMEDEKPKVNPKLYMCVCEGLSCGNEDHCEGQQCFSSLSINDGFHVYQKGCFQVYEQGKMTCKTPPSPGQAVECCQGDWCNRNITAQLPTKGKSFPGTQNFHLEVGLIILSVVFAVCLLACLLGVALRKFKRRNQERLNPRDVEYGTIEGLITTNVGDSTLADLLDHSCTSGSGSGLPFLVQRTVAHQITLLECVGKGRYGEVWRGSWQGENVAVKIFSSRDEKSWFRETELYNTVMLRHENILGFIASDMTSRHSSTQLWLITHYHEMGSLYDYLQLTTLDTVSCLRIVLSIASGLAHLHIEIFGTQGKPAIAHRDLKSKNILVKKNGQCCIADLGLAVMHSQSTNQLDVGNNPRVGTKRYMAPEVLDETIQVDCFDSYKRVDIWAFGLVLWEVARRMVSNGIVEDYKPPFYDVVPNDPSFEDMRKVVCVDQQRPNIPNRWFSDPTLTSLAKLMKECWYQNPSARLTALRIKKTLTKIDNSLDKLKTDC

[7] = biological target: Fibroblast growth factor receptor 2 (Homo sapiens) (UniProt P21802); assay: Selectivity interaction (KinomeScan (DiscoverX)) EUB0001079a FGFR2; conditions: at 1 µM
Sequence of Fibroblast growth factor receptor 2 (Homo sapiens) (P21802 22-821 limits assumed): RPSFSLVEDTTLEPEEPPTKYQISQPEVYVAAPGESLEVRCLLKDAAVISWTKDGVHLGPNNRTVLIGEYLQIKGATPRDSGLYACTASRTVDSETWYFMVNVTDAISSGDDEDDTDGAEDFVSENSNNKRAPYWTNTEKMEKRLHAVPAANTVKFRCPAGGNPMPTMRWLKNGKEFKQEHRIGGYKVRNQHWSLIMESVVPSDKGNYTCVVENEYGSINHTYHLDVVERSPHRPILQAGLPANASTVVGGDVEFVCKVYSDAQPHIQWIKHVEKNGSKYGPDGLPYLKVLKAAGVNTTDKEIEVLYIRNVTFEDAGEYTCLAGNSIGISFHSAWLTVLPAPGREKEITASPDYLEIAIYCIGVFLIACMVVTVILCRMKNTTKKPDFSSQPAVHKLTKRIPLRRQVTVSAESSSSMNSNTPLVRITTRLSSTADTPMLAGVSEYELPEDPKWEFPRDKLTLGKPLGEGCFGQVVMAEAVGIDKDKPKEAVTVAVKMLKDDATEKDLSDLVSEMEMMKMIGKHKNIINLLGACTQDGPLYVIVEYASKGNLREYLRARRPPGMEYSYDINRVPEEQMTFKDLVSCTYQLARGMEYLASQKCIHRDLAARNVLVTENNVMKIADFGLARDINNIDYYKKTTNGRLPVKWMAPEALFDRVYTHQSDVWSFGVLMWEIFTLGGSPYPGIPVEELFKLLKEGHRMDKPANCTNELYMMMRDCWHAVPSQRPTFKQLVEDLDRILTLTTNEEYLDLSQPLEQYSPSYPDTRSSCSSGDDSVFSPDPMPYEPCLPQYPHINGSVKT

[8] = biological target: T3, Serine/threonine-protein kinase Nek3 (Homo sapiens) (UniProt P51956); assay: Selectivity interaction (ProQinase) EUB0000171b NEK3
T3 sequence (whole entry): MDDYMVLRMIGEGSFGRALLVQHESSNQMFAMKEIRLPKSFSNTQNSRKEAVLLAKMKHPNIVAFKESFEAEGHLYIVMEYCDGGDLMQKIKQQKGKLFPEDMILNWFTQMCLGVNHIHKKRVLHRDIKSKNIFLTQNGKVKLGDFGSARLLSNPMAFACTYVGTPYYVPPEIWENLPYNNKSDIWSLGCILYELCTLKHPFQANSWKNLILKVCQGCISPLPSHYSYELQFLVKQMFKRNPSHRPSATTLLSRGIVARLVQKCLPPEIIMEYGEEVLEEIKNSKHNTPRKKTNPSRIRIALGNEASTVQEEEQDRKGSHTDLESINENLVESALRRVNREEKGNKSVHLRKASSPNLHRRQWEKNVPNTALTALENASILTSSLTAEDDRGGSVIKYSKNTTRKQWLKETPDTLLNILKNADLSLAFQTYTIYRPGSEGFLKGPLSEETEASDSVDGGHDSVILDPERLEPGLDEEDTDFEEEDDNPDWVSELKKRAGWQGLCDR

[9] = biological target: Rho-associated protein kinase 1 (Homo sapiens) (UniProt Q13464); assay: Selectivity interaction (Upstate Kinase Profiler service (Millipore)) EUB0000056c ROCK1; conditions: at 1 µM
Sequence of Rho-associated protein kinase 1 (Homo sapiens) (Q13464 2-1354 limits assumed): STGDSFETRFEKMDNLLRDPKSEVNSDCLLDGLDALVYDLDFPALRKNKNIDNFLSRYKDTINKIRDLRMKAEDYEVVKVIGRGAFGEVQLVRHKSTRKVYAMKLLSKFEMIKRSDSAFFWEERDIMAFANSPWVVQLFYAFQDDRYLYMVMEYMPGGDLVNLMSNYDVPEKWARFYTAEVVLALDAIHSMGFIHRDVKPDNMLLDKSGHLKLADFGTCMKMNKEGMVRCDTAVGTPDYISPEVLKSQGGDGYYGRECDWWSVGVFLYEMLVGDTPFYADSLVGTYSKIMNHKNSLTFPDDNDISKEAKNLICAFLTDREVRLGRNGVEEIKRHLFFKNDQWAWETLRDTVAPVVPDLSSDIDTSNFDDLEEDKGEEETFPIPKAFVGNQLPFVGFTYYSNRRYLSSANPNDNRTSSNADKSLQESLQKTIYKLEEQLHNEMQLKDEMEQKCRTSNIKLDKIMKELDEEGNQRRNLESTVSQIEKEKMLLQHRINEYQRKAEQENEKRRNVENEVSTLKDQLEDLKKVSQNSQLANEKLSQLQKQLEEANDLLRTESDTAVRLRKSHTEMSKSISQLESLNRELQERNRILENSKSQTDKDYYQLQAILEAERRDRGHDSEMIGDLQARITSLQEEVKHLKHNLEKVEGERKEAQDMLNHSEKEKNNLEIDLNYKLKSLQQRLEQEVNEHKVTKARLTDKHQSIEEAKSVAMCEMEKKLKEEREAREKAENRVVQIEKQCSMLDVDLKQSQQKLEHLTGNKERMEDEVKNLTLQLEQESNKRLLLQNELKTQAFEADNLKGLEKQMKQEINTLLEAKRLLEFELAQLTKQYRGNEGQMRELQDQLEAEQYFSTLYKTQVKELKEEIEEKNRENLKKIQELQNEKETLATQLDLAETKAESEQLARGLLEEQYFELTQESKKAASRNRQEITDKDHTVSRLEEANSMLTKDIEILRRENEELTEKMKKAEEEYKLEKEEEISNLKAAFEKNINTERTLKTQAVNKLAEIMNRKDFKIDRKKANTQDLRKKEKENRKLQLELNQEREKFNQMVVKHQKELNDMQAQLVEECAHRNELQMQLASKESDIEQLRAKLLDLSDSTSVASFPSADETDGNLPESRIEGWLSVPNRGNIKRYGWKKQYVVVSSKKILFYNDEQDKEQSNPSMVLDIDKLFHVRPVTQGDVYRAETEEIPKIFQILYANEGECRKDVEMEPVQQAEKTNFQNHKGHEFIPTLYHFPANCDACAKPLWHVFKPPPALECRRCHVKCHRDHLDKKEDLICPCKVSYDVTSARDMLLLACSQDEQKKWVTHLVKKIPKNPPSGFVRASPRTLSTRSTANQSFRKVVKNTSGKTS

[10] = biological target: Receptor tyrosine-protein kinase erbB-4 (Homo sapiens, UniProt Q15303); assay: Selectivity interaction (KinomeScan (DiscoverX)) EUB0000655a ERBB4; conditions: at 10 µM
[11] = biological target: T4, Interleukin-1 receptor-associated kinase 4 (Homo sapiens) (UniProt Q9NWZ3); assay: Selectivity interaction (ActivX KiNativ screen (ex vivo kinase selectivity in human PBMCs)) EUB0001619a IRAK4; assay type: cell-based; conditions: PBMC, at 1 µM
T4 sequence (whole entry): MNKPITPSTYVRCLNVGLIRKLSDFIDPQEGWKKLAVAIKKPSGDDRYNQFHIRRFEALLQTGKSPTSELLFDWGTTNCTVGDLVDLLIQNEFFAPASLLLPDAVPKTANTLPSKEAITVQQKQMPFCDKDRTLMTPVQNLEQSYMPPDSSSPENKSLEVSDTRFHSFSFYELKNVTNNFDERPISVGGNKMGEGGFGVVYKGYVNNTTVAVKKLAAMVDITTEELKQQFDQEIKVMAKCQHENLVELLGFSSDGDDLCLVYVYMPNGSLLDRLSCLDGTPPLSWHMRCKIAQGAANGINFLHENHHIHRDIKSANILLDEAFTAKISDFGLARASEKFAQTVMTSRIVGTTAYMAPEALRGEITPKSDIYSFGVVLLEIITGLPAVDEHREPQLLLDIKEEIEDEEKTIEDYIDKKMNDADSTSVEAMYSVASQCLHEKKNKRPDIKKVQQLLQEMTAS

[12] = biological target: Histone-lysine N-methyltransferase KMT5B (Homo sapiens) (UniProt Q4FZB7); assay: Selectivity interaction (Methyltransferase screen (Scintillation proximity assays)) EUB0000255b SUV420H1
Sequence of Histone-lysine N-methyltransferase KMT5B (Homo sapiens) (Q4FZB7 whole entry, looked up): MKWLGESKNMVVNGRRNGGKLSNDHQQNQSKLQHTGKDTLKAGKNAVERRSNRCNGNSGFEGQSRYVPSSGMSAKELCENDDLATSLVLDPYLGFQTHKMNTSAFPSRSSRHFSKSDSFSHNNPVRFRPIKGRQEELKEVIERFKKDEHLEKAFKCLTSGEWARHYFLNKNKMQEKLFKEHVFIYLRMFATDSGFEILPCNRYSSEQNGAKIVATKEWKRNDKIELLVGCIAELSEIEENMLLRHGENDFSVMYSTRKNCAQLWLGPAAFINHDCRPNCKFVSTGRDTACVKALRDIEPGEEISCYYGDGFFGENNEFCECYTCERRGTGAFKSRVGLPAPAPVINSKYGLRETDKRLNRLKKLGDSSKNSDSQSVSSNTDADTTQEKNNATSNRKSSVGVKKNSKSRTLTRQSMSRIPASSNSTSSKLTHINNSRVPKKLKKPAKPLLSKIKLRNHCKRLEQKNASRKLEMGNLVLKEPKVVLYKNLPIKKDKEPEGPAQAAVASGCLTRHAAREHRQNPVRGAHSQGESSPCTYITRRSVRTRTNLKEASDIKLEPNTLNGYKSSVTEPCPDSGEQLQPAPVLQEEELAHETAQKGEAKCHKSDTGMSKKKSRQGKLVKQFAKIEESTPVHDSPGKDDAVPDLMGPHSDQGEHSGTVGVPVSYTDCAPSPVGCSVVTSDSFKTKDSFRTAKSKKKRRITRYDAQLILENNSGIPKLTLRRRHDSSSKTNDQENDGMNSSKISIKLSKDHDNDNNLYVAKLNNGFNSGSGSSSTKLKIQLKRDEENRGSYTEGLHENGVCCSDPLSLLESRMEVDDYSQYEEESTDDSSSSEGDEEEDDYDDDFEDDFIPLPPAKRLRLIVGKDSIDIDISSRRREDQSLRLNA

SMILES: Cc1cc([C@@H](C)Nc2ccccc2C(=O)O)c2nc(N3CCOCC3)cc(=O)n2c1 [AZD-6482]
% of control [1]: 100%

SMILES: Cn1cc(-n2cnc3c(NCc4nc5cc(Cl)c(Cl)cc5[nH]4)nc(N4CCOCC4)nc32)cn1
% of inhibition [5]: -2.09% | % of inhibition [6]: -125%

SMILES: Nc1cnc(N2CCc3cc(S(=O)(=O)Nc4c(F)cc(Cl)cc4F)cc(N4CCCC4=O)c32)nc1 [TP-020n]
% of control [7]: 100%

SMILES: CN(C)CCOc1ccc(-c2nc(-c3ccncc3)c(-c3ccc4c(c3)CC/C4=N\O)[nH]2)cc1
% of control [10]: 73%

SMILES: N#Cc1cccc(-c2c[nH]c3ncnc(N4CCOCC4)c23)c1
% of inhibition [11]: 11%

SMILES: COCCN1CCC(c2cc(CN(C)C(=O)c3cccc(Oc4ccccc4)c3)ccn2)CC1
% activity ([12]; at 1 µM): > 95% | % activity ([12]; at 10 µM): > 90%

Further lines, results first:

% of inhibition [2]: -26.4% | % of inhibition ([3]; at 0.01 µM): -9.6% | % of inhibition ([3]; at 0.04 µM): 0.8% | % of inhibition ([3]; at 0.2 µM): -7.6% | % of inhibition ([3]; at 1 µM): 15.7% | % of inhibition ([3]; at 5 µM): 10.9%
SMILES: CC[C@@H]1[C@H](F)C(=O)N[C@@H]1COc1nccc2cc(C(N)=O)c(OC)cc12 [ZIMLOVISERTIB]

% of inhibition [4]: 13%
SMILES: CN1Cc2nccc(-c3cn(C)nc3-c3ccc(F)cc3)c2C1=O

% of control ([8]; at 1 µM): 73% | % of control ([8]; at 5 µM): 50%
SMILES: C=CC(=O)Nc1cccc(C(=O)Nc2ccc(Nc3cc(-c4[nH]c(SC)nc4C)ccn3)cc2)c1

% of inhibition [9]: -13%
SMILES: Cc1ccc(-c2ccc3c(ccc4sc5c(c43)NC[C@@H](C)NC5=O)n2)cn1
